In ChEMBL document CHEMBL4251572, “Novel aminopyrimidinyl benzimidazoles as potentially antimicrobial agents: Design, synthesis and biological evaluation” (Eur J Med Chem, 2018) one finds MIC data, which are given here for seven molecules.

The subject of one assay is Saccharomyces cerevisiae. The assay can be described thus: Antifungal against Saccharomyces cerevisiae after 24 hrs by two fold serial dilution method. The class given is functional.
For another assay, the system named is Aspergillus flavus. The assay can be described thus: Antifungal against Aspergillus flavus after 24 hrs by two fold serial dilution method. The class given is functional.
Another assay deals with Pichia norvegensis. The assay can be described thus: Antifungal against Candida mycoderma after 24 hrs by two fold serial dilution method. The class given is functional.
Assay [1] relates to Escherichia coli. The assay can be described thus: Antibacterial activity against Escherichia coli DH52 after 24 hrs by micro broth dilution assay. The class given is functional. The conditions noted are these: DH52, 24 h. A general note: Dilution methods test growth across graded concentrations, often in twofold steps.
Another assay concerns Cyberlindnera jadinii. The assay can be described thus: Antifungal against Candida utilis after 24 hrs by two fold serial dilution method. The following applies: Williopsis jadinii. In kind it is functional.
The test system of a further assay is Shigella dysenteriae. The assay can be described thus: Antibacterial activity against Shigella dysenteriae after 24 hrs by micro broth dilution assay. In kind it is functional.
Another assay has as its system Micrococcus luteus. The assay can be described thus: Antibacterial activity against Micrococcus luteus ATCC4698 after 24 hrs by micro broth dilution assay. The following applies: ATCC4698, 24 h. In kind it is functional.
Assay [2] relates to Staphylococcus aureus. The assay can be described thus: Antibacterial activity against Staphylococcus aureus ATCC 25923 after 24 hrs by micro broth dilution assay. The class given is functional. The following applies: ATCC 25923, 24 h.
The test system of another assay is Bacillus. The assay can be described thus: Antibacterial activity against Bacillus proteus ATCC 13315 after 24 hrs by micro broth dilution assay. In kind it is functional. The conditions noted are these: ATCC 13315, 24 h.
For a further assay, the system named is Candida albicans. The assay can be described thus: Antifungal against Candida albicans ATCC 76615 after 24 hrs by two fold serial dilution method. In kind it is functional. The following applies: ATCC 76615, 24 h.
Assay [3] concerns Escherichia coli. The assay can be described thus: Antibacterial activity against Escherichia coli JM109 after 24 hrs by micro broth dilution assay. The class given is functional. The conditions noted are these: JM109, 24 h.
A further assay has as its system Bacillus subtilis. The assay can be described thus: Antibacterial activity against Bacillus subtilis after 24 hrs by micro broth dilution assay. In kind it is functional.
The next assay relates to Salmonella typhi. The assay can be described thus: Antibacterial activity against Bacillus typhi after 24 hrs by micro broth dilution assay. In kind it is functional, Salmonella enterica subsp. enterica serovar Typhi. The conditions noted are these: Salmonella enterica.
For another assay, the system named is Pseudomonas aeruginosa. The assay can be described thus: Antibacterial activity against Pseudomonas aeruginosa after 24 hrs by micro broth dilution assay. In kind it is functional.
The test system of assay [4] is Staphylococcus aureus. The assay can be described thus: Antibacterial activity against methicillin-resistant Staphylococcus aureus N315 after 24 hrs by micro broth dilution assay. The class given is functional. The conditions noted are these: N315, 24 h.

Molecules are shown by their SMILES. Converted amounts (≈) assume the structure as drawn.

One may read the MIC as the lowest concentration that inhibits growth of the organism. A higher MIC goes with weaker potency. As for `CCCCCCCn1c(-c2cc(-c3ccc(F)cc3)nc(N)n2)nc2ccccc21`, the MIC against Saccharomyces cerevisiae is 16 mg/L (≈ 39.7 µM); against Aspergillus flavus it was 16 mg/L (≈ 39.7 µM); in the assay on Pichia norvegensis it was 512 mg/L (≈ 1270 µM); with Escherichia coli [1] it was 16 mg/L (≈ 39.7 µM); with Cyberlindnera jadinii it was 8 mg/L (≈ 19.8 µM); against Shigella dysenteriae, 512 mg/L (≈ 1270 µM). The minimum inhibitory concentration (MIC) against Micrococcus luteus is 16 mg/L (≈ 39.7 µM); in the assay with Staphylococcus aureus [2], 512 mg/L (≈ 1270 µM); in the assay on Bacillus it was 128 mg/L (≈ 317 µM); in the assay with Candida albicans, 16 mg/L (≈ 39.7 µM); with Escherichia coli [3] it was 256 mg/L (≈ 634 µM); against Bacillus subtilis, 2 mg/L (≈ 4.96 µM). The MIC against Salmonella typhi is 16 mg/L (≈ 39.7 µM); in the assay with Pseudomonas aeruginosa, 512 mg/L (≈ 1270 µM); in the assay on Staphylococcus aureus [4] it was 256 mg/L (≈ 634 µM).

Take `CCCCCCCCn1c(C(=O)/C=C/c2ccc(Cl)cc2Cl)nc2ccccc21`: the minimal inhibitory concentration (MIC) in the assay with Saccharomyces cerevisiae, against Aspergillus flavus, against Pichia norvegensis, against Escherichia coli [1], with Cyberlindnera jadinii and in the assay with Shigella dysenteriae was 512 mg/L (≈ 1190 µM) throughout. Moreover, the MIC against Micrococcus luteus worked out at 512 mg/L (≈ 1190 µM); against Staphylococcus aureus [2] it was 512 mg/L (≈ 1190 µM); in the assay on Bacillus, 512 mg/L (≈ 1190 µM); against Candida albicans it was 512 mg/L (≈ 1190 µM); in the assay on Escherichia coli [3], 256 mg/L (≈ 596 µM); in the assay on Bacillus subtilis it was 512 mg/L (≈ 1190 µM). Besides, the figures for the minimum inhibitory concentration (MIC) with Salmonella typhi, against Pseudomonas aeruginosa and in the assay with Staphylococcus aureus [4] were 512 mg/L (≈ 1190 µM), 512 mg/L (≈ 1190 µM) and 64 mg/L (≈ 149 µM), respectively.

As for `CCCCCCCn1c(C(=O)/C=C/c2ccc(Cl)cc2)nc2ccccc21`, the minimal inhibitory concentration (MIC) is 512 mg/L (≈ 1340 µM) against Saccharomyces cerevisiae; 64 mg/L (≈ 168 µM) in the assay on Aspergillus flavus; 512 mg/L (≈ 1340 µM) against Pichia norvegensis; 32 mg/L (≈ 84 µM) with Escherichia coli [1]; 512 mg/L (≈ 1340 µM) in the assay on Cyberlindnera jadinii; 512 mg/L (≈ 1340 µM) in the assay on Shigella dysenteriae. In addition, the MIC in the assay with Micrococcus luteus amounted to 8 mg/L (≈ 21 µM); against Staphylococcus aureus [2], 256 mg/L (≈ 672 µM); in the assay with Bacillus it was 512 mg/L (≈ 1340 µM); in the assay on Candida albicans it was 512 mg/L (≈ 1340 µM); in the assay on Escherichia coli [3], 512 mg/L (≈ 1340 µM); against Bacillus subtilis, 256 mg/L (≈ 672 µM). The MIC in the assay with Salmonella typhi, against Pseudomonas aeruginosa and with Staphylococcus aureus [4] was 512 mg/L (≈ 1340 µM) throughout.

On to `CCCCCCCCn1c(-c2cc(-c3ccc(Cl)cc3Cl)nc(N)n2)nc2ccccc21`, for which the MIC worked out at 16 mg/L (≈ 34.2 µM) against Saccharomyces cerevisiae; 512 mg/L (≈ 1090 µM) in the assay with Aspergillus flavus; 512 mg/L (≈ 1090 µM) in the assay on Pichia norvegensis; 512 mg/L (≈ 1090 µM) in the assay with Escherichia coli [1]; 8 mg/L (≈ 17.1 µM) against Cyberlindnera jadinii; 512 mg/L (≈ 1090 µM) in the assay with Shigella dysenteriae. The MIC was 32 mg/L (≈ 68.3 µM) in the assay with Micrococcus luteus; 256 mg/L (≈ 547 µM) against Staphylococcus aureus [2]; 4 mg/L (≈ 8.54 µM) with Bacillus; 512 mg/L (≈ 1090 µM) against Candida albicans; 512 mg/L (≈ 1090 µM) in the assay with Escherichia coli [3]; 512 mg/L (≈ 1090 µM) in the assay with Bacillus subtilis. Moreover, the MIC was 512 mg/L (≈ 1090 µM) with Salmonella typhi, 512 mg/L (≈ 1090 µM) against Pseudomonas aeruginosa and 256 mg/L (≈ 547 µM) against Staphylococcus aureus [4].

In the case of `CCCCCCCn1c(C(=O)/C=C/c2ccc(C)cc2)nc2ccccc21`, the MIC in the assay on Saccharomyces cerevisiae, in the assay with Aspergillus flavus, in the assay with Pichia norvegensis, with Escherichia coli [1], against Cyberlindnera jadinii and in the assay on Shigella dysenteriae was 512 mg/L (≈ 1420 µM) in each case. In addition, the MIC in the assay with Micrococcus luteus came out at 512 mg/L (≈ 1420 µM); with Staphylococcus aureus [2], 4 mg/L (≈ 11.1 µM); in the assay with Bacillus, 512 mg/L (≈ 1420 µM); in the assay with Candida albicans, 16 mg/L (≈ 44.4 µM); with Escherichia coli [3], 512 mg/L (≈ 1420 µM); in the assay with Bacillus subtilis, 512 mg/L (≈ 1420 µM). The MIC amounted to 512 mg/L (≈ 1420 µM) against Salmonella typhi, 512 mg/L (≈ 1420 µM) in the assay on Pseudomonas aeruginosa and 8 mg/L (≈ 22.2 µM) with Staphylococcus aureus [4].

In the case of `CCCCCCCn1c(C(=O)/C=C/c2ccc(F)cc2)nc2ccccc21`, the minimum inhibitory concentration (MIC) is 512 mg/L (≈ 1400 µM) in the assay with Saccharomyces cerevisiae; 512 mg/L (≈ 1400 µM) against Aspergillus flavus; 512 mg/L (≈ 1400 µM) against Pichia norvegensis; 512 mg/L (≈ 1400 µM) with Escherichia coli [1]; above 512 mg/L in the assay with Cyberlindnera jadinii; 512 mg/L (≈ 1400 µM) against Shigella dysenteriae. The minimum inhibitory concentration (MIC) against Micrococcus luteus worked out at 512 mg/L (≈ 1400 µM); against Staphylococcus aureus [2], 512 mg/L (≈ 1400 µM); with Bacillus, 512 mg/L (≈ 1400 µM); with Candida albicans, 512 mg/L (≈ 1400 µM); against Escherichia coli [3] it was 128 mg/L (≈ 351 µM); against Bacillus subtilis, 512 mg/L (≈ 1400 µM). Also, the minimal inhibitory concentration (MIC) amounted to 512 mg/L (≈ 1400 µM) against Salmonella typhi, 512 mg/L (≈ 1400 µM) in the assay on Pseudomonas aeruginosa and 64 mg/L (≈ 176 µM) against Staphylococcus aureus [4].

On to `OC(Cn1cncn1)(Cn1cncn1)c1ccc(F)cc1F` [FLUCONAZOLE], for which the MIC in the assay on Saccharomyces cerevisiae amounted to 8 mg/L (≈ 26.1 µM); in the assay on Aspergillus flavus it was 256 mg/L (≈ 836 µM); against Pichia norvegensis, 4 mg/L (≈ 13.1 µM); against Cyberlindnera jadinii it was 16 mg/L (≈ 52.2 µM); against Candida albicans, 1 mg/L (≈ 3.27 µM).
